Measured values as given in ChEMBL document CHEMBL5038653, “A Brain-Penetrant and Bioavailable Pyrazolopiperazine BACE1 Inhibitor Elicits Sustained Reduction of Amyloid β In Vivo” (ACS Med Chem Lett, 2022).
In brackets after ≈: the same amount, converted by molar mass.

What was measured:
[1] = Clearance in rat plasma at 0.25 mg/kg, iv; format: ADME, organism-based
[2] = Cardiotoxicity in guinea pig assessed as effect on PQ interval upto 5 mg/kg, iv administered over 10 mins at 30 mins interval by ECG analysis; format: toxicity, organism-based, Cavia porcellus; conditions: in vivo
[3] = Clearance in mouse at 0.28 mg/kg, iv relative to liver blood flow; format: ADME, organism-based; conditions: in vivo
[4] = Half life in rat at 0.25 mg/kg, iv; format: ADME, organism-based; conditions: in vivo
Beta-secretase 2 = target: T1, Beta-secretase 2 (Homo sapiens, UniProt Q9Y5Z0); assay: Inhibition of BACE2 (unknown origin)
T1 sequence (Q9Y5Z0 whole entry): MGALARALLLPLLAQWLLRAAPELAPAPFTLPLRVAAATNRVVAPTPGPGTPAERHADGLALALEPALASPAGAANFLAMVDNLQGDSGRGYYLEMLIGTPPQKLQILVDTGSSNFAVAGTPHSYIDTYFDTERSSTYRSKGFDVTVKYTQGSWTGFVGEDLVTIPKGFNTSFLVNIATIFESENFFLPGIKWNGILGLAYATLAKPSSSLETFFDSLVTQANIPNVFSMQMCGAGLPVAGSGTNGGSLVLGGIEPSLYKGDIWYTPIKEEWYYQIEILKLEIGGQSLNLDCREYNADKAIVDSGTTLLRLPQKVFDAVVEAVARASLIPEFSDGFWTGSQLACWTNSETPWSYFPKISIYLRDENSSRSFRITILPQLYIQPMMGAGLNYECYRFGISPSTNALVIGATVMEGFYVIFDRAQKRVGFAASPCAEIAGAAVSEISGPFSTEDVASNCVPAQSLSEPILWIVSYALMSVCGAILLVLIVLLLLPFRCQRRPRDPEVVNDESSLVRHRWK

[5] = Apparent permeability across apical to basolateral side in dog MDCK-MDR1 cells at 5 uM incubated for 120 mins; format: ADME, cell-based, Canis lupus familiaris
[6] = Cmax in dog at 2.5 mg/kg, po; format: ADME, organism-based, Canis lupus familiaris; set-up: route oral, dose 2.5 mg/kg; conditions: in vivo
Cytochrome P450 2D6 = Cytochrome P450 2D6 (Homo sapiens, UniProt P10635); assay: Inhibition of human CYP2D6 by fluorescence plate reader analysis; format: ADME
[7] = AUC (0 to infinity) in mouse at 0.28 mg/kg, iv; format: ADME, organism-based; set-up: time infinity, route intravenous, dose 0.28 mg/kg; conditions: in vivo
[8] = target: Voltage-gated inwardly rectifying potassium channel KCNH2 (Homo sapiens, UniProt Q12809); assay: Inhibition of hERG expressed in HEK293 cells at -80 mV holding potential by automated patch-clamp method; format: toxicity, cell-based
[9] = Toxicity in Beagle dog assessed as behavioral changes at 0.31 to 5 mg/kg, po; format: organism-based, Canis lupus familiaris; conditions: in vivo, dose 0.31-5 mg/kg
[10] = In vivo inhibition of BACE1 in Beagle dog assessed as reduction of amyloid beta (1 to 42 residues) levels in CSF at 5 mg/kg, po measured at 8 to 24 hrs; format: functional, Canis lupus familiaris; set-up: scale not given: the % may be the effect or the level left; conditions: time 8-24 hrs
Cathepsin D = Cathepsin D (Homo sapiens, UniProt P07339); assay: Inhibition of Cathepsin D (unknown origin)
[11] = AUC (0 to last) in rat at 2.3 mg/kg, po; format: ADME, organism-based; set-up: time 0 - last, route oral, dose 2.3 mg/kg; conditions: in vivo
[12] = Volume of distribution at steady state in dog at 0.25 mg/kg, iv; format: ADME, organism-based, Canis lupus familiaris; conditions: in vivo, read-out: Vdss
[13] = Tmax in dog at 2.5 mg/kg, po; format: ADME, organism-based, Canis lupus familiaris; conditions: in vivo
[14] = Volume of distribution at steady state in mouse at 0.28 mg/kg, iv; format: ADME, organism-based; conditions: in vivo, read-out: Vdss
[15] = Drug level in CD-1 mouse brain at 10 mg/kg, po measured at 1 hr post dose; format: ADME, organism-based; conditions: read-out: Ct
[16] = Clearance in dog at 0.25 mg/kg, iv to liver blood flow; format: ADME, organism-based, Canis lupus familiaris; conditions: in vivo
Cytochrome P450 2C8 = target: T2, Cytochrome P450 2C8 (Homo sapiens, UniProt P10632); assay: Inhibition of human CYP2C8 by fluorescence plate reader analysis; format: ADME
T2 sequence (P10632 whole entry): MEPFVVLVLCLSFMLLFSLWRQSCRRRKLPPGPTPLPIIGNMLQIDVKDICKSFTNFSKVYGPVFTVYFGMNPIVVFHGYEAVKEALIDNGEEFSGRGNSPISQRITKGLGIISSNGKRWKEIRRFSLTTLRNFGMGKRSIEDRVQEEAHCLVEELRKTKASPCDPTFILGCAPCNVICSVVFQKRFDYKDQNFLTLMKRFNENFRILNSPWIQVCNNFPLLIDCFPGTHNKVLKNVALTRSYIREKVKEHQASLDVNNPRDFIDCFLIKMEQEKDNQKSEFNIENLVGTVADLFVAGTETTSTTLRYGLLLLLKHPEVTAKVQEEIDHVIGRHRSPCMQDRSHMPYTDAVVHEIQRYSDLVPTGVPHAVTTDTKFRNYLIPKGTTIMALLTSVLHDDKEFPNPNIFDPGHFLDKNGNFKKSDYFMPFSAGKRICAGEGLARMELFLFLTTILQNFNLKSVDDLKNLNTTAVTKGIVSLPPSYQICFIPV

[17] = AUC (0 to infinity) in rat at 0.25 mg/kg, iv; format: ADME, organism-based; set-up: route intravenous, time infinity, dose 0.25 mg/kg; conditions: in vivo
[18] = Half life in mouse at 0.28 mg/kg, iv; format: ADME, organism-based; conditions: in vivo
[19] = Drug level in CD-1 mouse brain at 10 mg/kg, po measured at 2 hr post dose; format: ADME, organism-based; conditions: read-out: Ct
[20] = Cardiotoxicity in guinea pig assessed as effect on heart rate upto 5 mg/kg, iv administered over 10 mins at 30 mins interval by ECG analysis; format: toxicity, organism-based, Cavia porcellus; conditions: in vivo
[21] = Ratio of unbound drug concentration in brain to blood in CD-1 mouse at 10 mg/kg, po measured at 1 hr post dose; format: ADME, organism-based
[22] = Clearance in dog plasma at 0.25 mg/kg, iv; format: ADME, organism-based, Canis lupus familiaris
[23] = Cardiotoxicity in guinea pig assessed as effect on blood pressure upto 5 mg/kg, iv administered over 10 mins at 30 mins interval; format: toxicity, organism-based, Cavia porcellus; conditions: in vivo
[24] = Drug level in CD-1 mouse brain at 10 mg/kg, po measured at 4 hr post dose; format: ADME, organism-based; conditions: read-out: Ct
[25] = Metabolic stability in human liver microsomes assessed as metabolite formation after 15 mins in presence of NADPH by LC-MS analysis; format: ADME, Microsome; conditions: 0.25 h
[26] = Cmax in mouse at 2.1 mg/kg, po; format: ADME, organism-based; set-up: route oral, dose 2.1 mg/kg; conditions: in vivo
[27] = In vivo inhibition of BACE1 in Beagle dog assessed as reduction of amyloid beta (1 to 42 residues) levels in CSF at 2.5 mg/kg, po measured after 8 hrs by electrochemiluminescence assay; format: functional, Canis lupus familiaris; set-up: scale not given: the % may be the effect or the level left
[28] = Cardiotoxicity in guinea pig assessed as effect on QRS interval upto 5 mg/kg, iv administered over 10 mins at 30 mins interval by ECG analysis; format: toxicity, organism-based, Cavia porcellus; conditions: in vivo
[29] = Drug level in CD-1 mouse plasma at 10 mg/kg, po measured at 2 hr post dose; format: ADME, organism-based
[30] = Clearance in rat at 0.25 mg/kg, iv relative to liver blood flow; format: ADME, organism-based; conditions: in vivo
[31] = Free drug concentration in mouse plasma measured after 4.5 hrs by HPLC-MS/MS method; format: ADME, cell-free
[32] = In vivo inhibition of BACE1 in Beagle dog assessed as reduction of amyloid beta (1 to 42 residues) levels in CSF administered orally by electrochemiluminescence assay; format: functional, organism-based, Canis lupus familiaris

Sequence of Cathepsin D (P07339 65-162 limits assumed): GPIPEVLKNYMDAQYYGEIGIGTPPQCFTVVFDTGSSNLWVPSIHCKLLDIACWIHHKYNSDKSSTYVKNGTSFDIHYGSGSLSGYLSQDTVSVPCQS
Sequence of Cathepsin D (P07339 169-412 limits assumed): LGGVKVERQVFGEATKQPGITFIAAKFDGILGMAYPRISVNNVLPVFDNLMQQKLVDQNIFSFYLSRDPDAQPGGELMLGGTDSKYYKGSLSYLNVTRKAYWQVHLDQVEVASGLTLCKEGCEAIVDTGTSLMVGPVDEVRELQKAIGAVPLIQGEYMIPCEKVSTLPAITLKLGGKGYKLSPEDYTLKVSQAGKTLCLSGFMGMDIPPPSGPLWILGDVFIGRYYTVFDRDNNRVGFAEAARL
Sequence of Voltage-gated inwardly rectifying potassium channel KCNH2 (Q12809 whole entry): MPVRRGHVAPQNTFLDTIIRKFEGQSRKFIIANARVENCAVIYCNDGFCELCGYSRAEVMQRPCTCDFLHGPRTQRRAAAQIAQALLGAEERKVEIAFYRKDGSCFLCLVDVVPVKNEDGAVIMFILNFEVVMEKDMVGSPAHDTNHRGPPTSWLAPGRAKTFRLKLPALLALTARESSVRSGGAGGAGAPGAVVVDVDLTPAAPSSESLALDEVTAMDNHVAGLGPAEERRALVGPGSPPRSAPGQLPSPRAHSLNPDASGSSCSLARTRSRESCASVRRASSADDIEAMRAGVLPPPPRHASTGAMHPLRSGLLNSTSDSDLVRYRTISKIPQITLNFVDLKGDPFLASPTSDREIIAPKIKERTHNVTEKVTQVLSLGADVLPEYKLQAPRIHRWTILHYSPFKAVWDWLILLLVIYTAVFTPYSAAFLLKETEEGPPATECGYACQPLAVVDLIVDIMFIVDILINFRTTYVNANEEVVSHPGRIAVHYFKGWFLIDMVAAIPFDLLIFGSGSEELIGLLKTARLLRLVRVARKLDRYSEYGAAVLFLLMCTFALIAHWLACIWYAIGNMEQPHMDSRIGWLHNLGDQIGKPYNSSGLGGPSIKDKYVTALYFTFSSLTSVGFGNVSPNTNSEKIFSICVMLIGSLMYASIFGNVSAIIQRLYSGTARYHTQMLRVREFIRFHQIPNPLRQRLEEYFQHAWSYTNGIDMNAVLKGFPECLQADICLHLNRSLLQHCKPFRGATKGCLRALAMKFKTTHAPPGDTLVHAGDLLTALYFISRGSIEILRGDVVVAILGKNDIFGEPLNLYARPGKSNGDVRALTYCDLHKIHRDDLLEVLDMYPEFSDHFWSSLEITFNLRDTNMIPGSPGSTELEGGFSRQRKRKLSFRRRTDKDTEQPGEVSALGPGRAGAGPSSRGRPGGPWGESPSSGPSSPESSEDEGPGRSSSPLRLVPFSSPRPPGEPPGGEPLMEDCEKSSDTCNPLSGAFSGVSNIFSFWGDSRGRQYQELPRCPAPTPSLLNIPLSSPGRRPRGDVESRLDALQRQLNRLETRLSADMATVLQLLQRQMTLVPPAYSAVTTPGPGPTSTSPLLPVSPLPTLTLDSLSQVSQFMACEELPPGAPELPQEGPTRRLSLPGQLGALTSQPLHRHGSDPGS
Sequence of Cytochrome P450 2D6 (P10635 whole entry): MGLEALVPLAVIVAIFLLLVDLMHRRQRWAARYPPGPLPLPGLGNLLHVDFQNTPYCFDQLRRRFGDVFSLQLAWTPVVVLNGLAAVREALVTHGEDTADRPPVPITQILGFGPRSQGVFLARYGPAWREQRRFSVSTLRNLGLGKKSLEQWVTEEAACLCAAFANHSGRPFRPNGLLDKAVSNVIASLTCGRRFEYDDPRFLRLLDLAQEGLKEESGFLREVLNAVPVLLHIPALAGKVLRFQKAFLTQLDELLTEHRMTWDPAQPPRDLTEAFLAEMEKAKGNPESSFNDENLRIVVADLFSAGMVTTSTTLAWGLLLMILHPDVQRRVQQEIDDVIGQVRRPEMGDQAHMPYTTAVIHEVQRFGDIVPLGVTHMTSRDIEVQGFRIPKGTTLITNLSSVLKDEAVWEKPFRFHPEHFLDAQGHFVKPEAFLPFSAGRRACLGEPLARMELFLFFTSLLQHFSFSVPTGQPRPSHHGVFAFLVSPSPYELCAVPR

## COc1cnc(C(=O)Nc2ccc(F)c([C@]3(C)Cn4nc(C#N)cc4C(N)=N3)c2)cn1
[1]
  clearance: 19 mL/min/kg
[2]
  Activity: Non-Toxic
[3]
  CL: 25%
[4]
  half-life: 4.3 h
Beta-secretase 2
  IC50: 0.0115 µM
[5]
  Papp A→B at 2 h, 5 µM: 13.1 ×10⁻⁶ cm/s
[6]
  Cmax: 352 ng/mL
Cytochrome P450 2D6
  IC50: > 30 µM
[7]
  AUC: 206 ng·h/mL
[8]
  IC50: > 10 µM
[9]
  Activity: Non-Toxic
[10]
  Activity: 80%
Cathepsin D
  IC50: > 100 µM
[11]
  AUClast: 1170 ng·h/mL
[12]
  Vd: 4.2 L/kg
[13]
  Tmax: 2.3 h
[14]
  Vd: 5.3 L/kg
[15]
  concentration at 1 h: 621 ng/g
[16]
  CL: 20%
Cytochrome P450 2C8
  IC50: > 30 µM
[17]
  AUC: 219 ng·h/mL
[18]
  half-life: 2.8 h
[19]
  concentration at 2 h: 888 ng/g
[20]
  Activity: Non-Toxic
[21]
  Kp uu at 1 h: 0.3
[22]
  clearance: 6 mL/min/kg
[23]
  Activity: Non-Toxic
[24]
  concentration at 4 h: 402 ng/g
[25]
  Drug metabolism: 8%
[26]
  Cmax: 160 ng/mL
[27]
  Activity: 85%
[28]
  Activity: Non-Toxic
[29]
  concentration at 2 h: 866 ng/mL
[30]
  CL: 35%
[31]
  fraction unbound at 4.5 h: 0.05
[32]
  EC90: 44 ng/mL (≈ 0.105 µM)
[32]; Canis lupus familiaris, Beagle
  EC50: 7.5 ng/mL (≈ 0.0178 µM)
